Consider 10 compounds from ChEMBL document CHEMBL5346873, “Strategic modification of low-activity natural antimicrobial peptides confers antibacterial potential in vitro and in vivo” (Eur J Med Chem, 2023).

Converted amounts (≈) assume the structure as drawn.

For series [1], the system named is Vibrio vulnificus. Description: Antibacterial activity against Vibrio vulnificus V1 incubated for 16 to 20 hrs. The settings on record: time 16-20 hrs. It is filed as functional.
In series [2] the test system is Salmonella typhimurium. Description: Antibacterial activity against Salmonella typhimurium incubated for 16 to 20 hrs. The settings on record: Salmonella enterica; time 16-20 hrs. It is filed as functional, Salmonella enterica subsp. enterica serovar Typhimurium.
Series [3] concerns Vibrio anguillarum. Description: Antibacterial activity against Listonella anguillarum incubated for 16 to 20 hrs. It is filed as functional. The settings on record: time 16-20 hrs.
The subject of series [4] is Aeromonas hydrophila. Description: Antibacterial activity against Aeromonas hydrophila incubated for 16 to 20 hrs. It is filed as functional. The settings on record: time 16-20 hrs.
Series [5] relates to Klebsiella aerogenes. Kind of series: Antibacterial activity against Enterobacter aerogenes incubated for 16 to 20 hrs. It is filed as functional. The settings on record: time 16-20 hrs.
Series [6] deals with Edwardsiella tarda. Description: Antibacterial activity against Edwardsiella tarda incubated for 16 to 20 hrs. It is filed as functional. The settings on record: time 16-20 hrs.
Series [7] concerns Edwardsiella tarda. Description: Bactericidal activity against Edwardsiella tarda incubated overnight. It is filed as functional.
Series [8] deals with Enterococcus faecalis. Kind of series: Antibacterial activity against Enterococcus faecalis incubated for 16 to 20 hrs. It is filed as functional. The settings on record: time 16-20 hrs.
The test system of series [9] is Vibrio vulnificus. Description: Bactericidal activity against Vibrio vulnificus 204 incubated overnight. It is filed as functional.
Series [10] deals with Staphylococcus haemolyticus. Description: Bactericidal activity against Staphylococcus haemolyticus incubated overnight. It is filed as functional.
Series [11] deals with Streptococcus iniae. Kind of series: Antibacterial activity against Streptococcus iniae incubated for 16 to 20 hrs. It is filed as functional. The settings on record: time 16-20 hrs.
In series [12] the test system is Klebsiella aerogenes. Description: Bactericidal activity against Enterobacter aerogenes incubated overnight. It is filed as functional.
In series [13] the test system is Vibrio vulnificus. Description: Antibacterial activity against Vibrio vulnificus 204 incubated for 16 to 20 hrs. It is filed as functional. The settings on record: time 16-20 hrs.
Series [14] relates to Vibrio vulnificus. Kind of series: Bactericidal activity against Vibrio vulnificus V2 incubated overnight. It is filed as functional.
In series [15] the test system is Salmonella typhimurium. Description: Bactericidal activity against Salmonella typhimurium incubated overnight. It is filed as functional, Salmonella enterica subsp. enterica serovar Typhimurium. The settings on record: Salmonella enterica.
Series [16] deals with Vibrio vulnificus. Description: Bactericidal activity against Vibrio vulnificus V1 incubated overnight. It is filed as functional.
Series [17] concerns Vibrio anguillarum. Kind of series: Bactericidal activity against Listonella anguillarum incubated overnight. It is filed as functional.
The test system of series [18] is Vibrio vulnificus. Kind of series: Bactericidal activity against Vibrio vulnificus V3 incubated overnight. It is filed as functional.
For series [19], the system named is Nakaseomyces glabratus. Kind of series: Fungicidal activity against Candida glabrata incubated overnight. It is filed as functional.
Series [20] deals with Klebsiella oxytoca. Kind of series: Antibacterial activity against Klebsiella oxytoca incubated for 16 to 20 hrs. It is filed as functional. The settings on record: time 16-20 hrs.
For series [21], the system named is Pseudomonas aeruginosa. Description: Bactericidal activity against Pseudomonas aeruginosa incubated overnight. It is filed as functional.
Series [22] deals with Vibrio alginolyticus. Description: Bactericidal activity against Vibrio alginolyticus incubated overnight. It is filed as functional.
Series [23] has as its system Candida tropicalis. Kind of series: Antifungal activity against Candida tropicalis incubated for 16 to 20 hrs. It is filed as functional. The settings on record: time 16-20 hrs.
In series [24] the test system is Vibrio harveyi. Kind of series: Antibacterial activity against Vibrio harveyi incubated for 16 to 20 hrs. It is filed as functional. The settings on record: time 16-20 hrs.
The test system of series [25] is Vibrio vulnificus. Kind of series: Antibacterial activity against Vibrio vulnificus V2 incubated for 16 to 20 hrs. It is filed as functional. The settings on record: time 16-20 hrs.
In series [26] the test system is Staphylococcus haemolyticus. Description: Antibacterial activity against Staphylococcus haemolyticus incubated for 16 to 20 hrs. It is filed as functional. The settings on record: time 16-20 hrs.
Series [27] has as its system Klebsiella pneumoniae. Kind of series: Bactericidal activity against NDM Klebsiella pneumoniae incubated overnight. It is filed as functional.
Series [28] concerns Aeromonas hydrophila. Description: Bactericidal activity against Aeromonas hydrophila incubated overnight. It is filed as functional.
For series [29], the system named is Klebsiella oxytoca. Description: Bactericidal activity against Klebsiella oxytoca incubated overnight. It is filed as functional.
Series [30] deals with Nakaseomyces glabratus. Kind of series: Antifungal activity against Candida glabrata incubated for 16 to 20 hrs. It is filed as functional. The settings on record: time 16-20 hrs.
Series [31] concerns Pseudomonas aeruginosa. Description: Antibacterial activity against Pseudomonas aeruginosa incubated for 16 to 20 hrs. It is filed as functional. The settings on record: time 16-20 hrs.
Series [32] concerns Escherichia coli. Description: Antibacterial activity against Escherichia coli incubated for 16 to 20 hrs. The settings on record: time 16-20 hrs. It is filed as functional.
The test system of series [33] is Klebsiella pneumoniae. Kind of series: Antibacterial activity against NDM Klebsiella pneumoniae incubated for 16 to 20 hrs. It is filed as functional. The settings on record: time 16-20 hrs.
The test system of series [34] is Streptococcus agalactiae. Description: Bactericidal activity against Streptococcus agalactiae incubated overnight. It is filed as functional.
The test system of series [35] is Vibrio alginolyticus. Description: Antibacterial activity against Vibrio alginolyticus incubated for 16 to 20 hrs. It is filed as functional. The settings on record: time 16-20 hrs.
For series [36], the system named is Enterococcus faecium. Kind of series: Bactericidal activity against Enterococcus faecium incubated overnight. It is filed as functional.
The subject of series [37] is Enterococcus faecalis. Description: Bactericidal activity against Enterococcus faecalis incubated overnight. It is filed as functional.
Series [38] relates to Escherichia coli. Kind of series: Bactericidal activity against Escherichia coli incubated overnight. It is filed as functional.
The test system of series [39] is Vibrio vulnificus. Kind of series: Antibacterial activity against Vibrio vulnificus V3 incubated for 16 to 20 hrs. It is filed as functional. The settings on record: time 16-20 hrs.
The test system of series [40] is Streptococcus agalactiae. Description: Antibacterial activity against Streptococcus agalactiae incubated for 16 to 20 hrs. It is filed as functional. The settings on record: time 16-20 hrs.
Series [41] has as its system Vibrio harveyi. Kind of series: Bactericidal activity against Vibrio harveyi incubated overnight. It is filed as functional.
The subject of series [42] is Streptococcus iniae. Description: Bactericidal activity against Streptococcus iniae incubated overnight. It is filed as functional.
In series [43] the test system is Candida tropicalis. Kind of series: Fungicidal activity against Candida tropicalis incubated overnight. It is filed as functional.
The test system of series [44] is Salmonella enterica. Kind of series: Bactericidal activity against Salmonella enterica incubated overnight. It is filed as functional.
The subject of series [45] is Enterococcus faecium. Description: Antibacterial activity against Enterococcus faecium incubated for 16 to 20 hrs. It is filed as functional. The settings on record: time 16-20 hrs.
The test system of series [46] is Salmonella enterica. Description: Antibacterial activity against Salmonella enterica incubated for 16 to 20 hrs. It is filed as functional. The settings on record: time 16-20 hrs.
The test system of series [47] is Vibrio vulnificus. Kind of series: Antibacterial activity against Vibrio vulnificus 204 assessed as induction of resistance development by measuring fold increase in MIC measured after 15 passages. It is filed as functional.
Series [48] can be described thus: Hemolytic activity in human RBC at 100 ug/ml incubated for 1 hr. The settings on record: human red blood cells (erythrocytes), at 100 µg/mL, read-out: Activity. It is filed as toxicity, cell-based, Erythrocyte.
For a further series, the system named is Staphylococcus aureus. Description: Bactericidal activity against Staphylococcus aureus incubated for overnight. It is filed as functional.
The test system of the next series is Acinetobacter baumannii. Kind of series: Bactericidal activity against Acinetobacter baumannii incubated for overnight. It is filed as functional.

With `CC1(C)S[C@@H]2[C@H](NC(=O)[C@H](N)c3ccccc3)C(=O)N2[C@H]1C(=O)O` [AMPICILLIN], the MIC – broadly, the least concentration at which growth counts as inhibited – is 50 µg/mL (≈ 143 µM) with Vibrio vulnificus [1]; greater than 100 µg/mL against Salmonella typhimurium [2]; greater than 100 µg/mL against Vibrio anguillarum [3]; greater than 100 µg/mL against Aeromonas hydrophila [4]; 50 µg/mL (≈ 143 µM) in the series with Klebsiella aerogenes [5]; 3.12 µg/mL (≈ 8.94 µM) with Edwardsiella tarda [6]. The MIC was 100 µg/mL (≈ 286 µM) against Enterococcus faecalis [8]; 6.25 µg/mL (≈ 17.9 µM) in the series on Streptococcus iniae [11]; greater than 100 µg/mL in the series with Vibrio vulnificus [13]; greater than 100 µg/mL against Klebsiella oxytoca [20]; greater than 100 µg/mL with Candida tropicalis [23]; greater than 100 µg/mL against Vibrio harveyi [24]. Besides, the MIC was 50 µg/mL (≈ 143 µM) with Vibrio vulnificus [25]; less than 1.56 µg/mL in [26]; greater than 100 µg/mL against Nakaseomyces glabratus [30]; greater than 100 µg/mL in the series on Pseudomonas aeruginosa [31]; 3.12 µg/mL (≈ 8.94 µM) against Escherichia coli [32]; greater than 100 µg/mL with Klebsiella pneumoniae [33]. Besides, the MIC is greater than 100 µg/mL in the series on Vibrio alginolyticus [35]; 50 µg/mL (≈ 143 µM) in the series on Vibrio vulnificus [39]; less than 1.56 µg/mL against Streptococcus agalactiae [40]; less than 1.56 µg/mL against Enterococcus faecium [45]; 3.12 µg/mL (≈ 8.94 µM) against Salmonella enterica [46]. In addition, the minimum bactericidal concentration (MBC) – broadly, the lowest tested concentration that kills the bacteria rather than only halting them – against Edwardsiella tarda [7] is 3.12 µg/mL (≈ 8.94 µM); against Vibrio vulnificus [9] it was greater than 100 µg/mL; in [10] it was less than 1.56 µg/mL; against Klebsiella aerogenes [12], 100 µg/mL (≈ 286 µM); in the series on Vibrio vulnificus [14], 50 µg/mL (≈ 143 µM); in the series on Salmonella typhimurium [15], greater than 100 µg/mL. In addition, the MBC against Vibrio vulnificus [16] was 50 µg/mL (≈ 143 µM); in the series on Vibrio anguillarum [17], greater than 100 µg/mL; in the series on Vibrio vulnificus [18], 50 µg/mL (≈ 143 µM); against Pseudomonas aeruginosa [21] it was greater than 100 µg/mL; against Vibrio alginolyticus [22], greater than 100 µg/mL; in the series with Klebsiella pneumoniae [27], greater than 100 µg/mL. The MBC in the series on Aeromonas hydrophila [28] was greater than 100 µg/mL; with Klebsiella oxytoca [29], greater than 100 µg/mL; against Streptococcus agalactiae [34], less than 1.56 µg/mL; against Enterococcus faecium [36], less than 1.56 µg/mL; against Enterococcus faecalis [37], greater than 100 µg/mL; against Escherichia coli [38] it was 6.25 µg/mL (≈ 17.9 µM). Further, the results for the MBC with Vibrio harveyi [41], against Streptococcus iniae [42] and against Salmonella enterica [44] were greater than 100 µg/mL, 6.25 µg/mL (≈ 17.9 µM) and 6.25 µg/mL (≈ 17.9 µM), respectively. For the same compound, the MFC in the series with Nakaseomyces glabratus [19] and with Candida tropicalis [43] was greater than 100 µg/mL each time.

`CN(C)[C@@H]1C(O)=C(C(N)=O)C(=O)[C@@]2(O)C(O)=C3C(=O)c4c(O)cccc4[C@@](C)(O)[C@H]3C[C@@H]12` [TETRACYCLINE]: in the series with Vibrio vulnificus [47], the “fold change (FC)” value was found to be 128.

For the compound H-FDWDSVLKGVEGFVRGYF-OH, the hemolysis at 1 h, 100 ug/ml in series [48] is 15.2%. In addition, the MBC in the series on Staphylococcus aureus and against Acinetobacter baumannii was greater than 100 µg/mL throughout.

With H-FKDKSVLKIVDIFVDIYF-OH, the hemolysis at 1 h, 100 ug/ml in series [48] is 2.7%. Besides, the MBC with Staphylococcus aureus and against Acinetobacter baumannii was greater than 100 µg/mL in each case.

Regarding H-FKDKSVLKIVKIFVDIYF-OH, the hemolysis at 1 h, 100 ug/ml in [48] was found to be 16.3%. Besides, the MBC in the series on Staphylococcus aureus and in the series with Acinetobacter baumannii was greater than 100 µg/mL each time.

For H-FKDKSVLKIVKIFVKIYF-OH, in series [48], the hemolysis at 1 h, 100 ug/ml is 2.2%. The MBC against Staphylococcus aureus and with Acinetobacter baumannii was greater than 100 µg/mL throughout.

Consider H-FKWKSVLKGVDGFVDGYF-OH, for which the hemolysis at 1 h, 100 ug/ml in series [48] was found to be 101%. Also, the MBC in the series with Staphylococcus aureus and against Acinetobacter baumannii was greater than 100 µg/mL each time.

As to H-FKWKSVLKGVKGFVDGYF-OH, in series [48], the hemolysis at 1 h, 100 ug/ml worked out at 99.8%. Besides, the MBC against Staphylococcus aureus and with Acinetobacter baumannii was greater than 100 µg/mL throughout.

Regarding H-FKWKSVLKIVDIFVDIYF-OH, the hemolysis at 1 h, 100 ug/ml in series [48] came to 67.8%. Moreover, the MBC against Staphylococcus aureus and with Acinetobacter baumannii was greater than 100 µg/mL in each case.

For H-FKWKSVLKIVKIFVDIYF-OH, in [48], the hemolysis at 1 h, 100 ug/ml was 48.1%. Besides, the MBC in the series with Staphylococcus aureus and against Acinetobacter baumannii was greater than 100 µg/mL each time.
